Series [1] has as its system human red blood cells (hRBCs). Nature of the series: Hemolysis. It is filed as cell-based. Here is the method: The hemolytic ability of the peptides was tested using hRBCs. FreshhRBCs were washed three times with phosphate-buffered saline (PBS) (35 mM phosphate buffer containing 150 mM NaCl, pH 7.4), centrifuged for 10 min at 1000×g, and resuspended in PBS. The peptide solutions were then added to 50 µL of hRBCs in PBS to yield a final volume of 100 µL and a final erythrocyte concentration of 4% (v/v). The resulting suspension was incubated with agitation for 1 h at 37°C. The samples were centrifuged at 1000×g for 5 min. Hemoglobin release was monitored by measuring the absorbance of the supernatant at 405 nm. Controls for zero hemolysis (blank) and 100% hemolysis consisted of hRBCs suspended in PBS and 0.1% Triton-X 100, respectively. The percentage of hemolysis was calculated using the following equation: [drawing 1]

The next series has as its system NIH3T3 cells. Nature of the series: Cytotoxicity, MTT assay. The class given is cell-based, mouse. The settings on record: 1 d. Here is the method: The mouse embryonic fibroblast-derived cell line NIH3T3 was purchased from the American Type Culture Collection (Manassas, VA). Cells were cultured in Dulbecco’s modified Eagle medium (DMEM) supplemented with 10% fetal bovine serum (FBS) and antibiotic solution (100 units/mL penicillin and 100 µg/mL streptomycin) at 37°C in a humidified 5% CO2 atmosphere. Cultures were passaged every 2–3 days by brief trypsin treatment and visualized with an inverted microscope. The cytotoxicity of peptides against mammalian cells was determined using a 3-(4,5-dimethylthiazol-2-yl)-2,5-diphynyltetrazolium bromide (MTT) assay. Cells were seeded on 96-well microplates at a density of 1×10^4 cells/well in 100 µL of DMEM containing 10% FBS and 1% antibiotics, and […]. Plates were incubated for 24 h at 37°C in 5% CO2. Serial 2-fold dilutions of peptide solutions (100 µL) in DMEM were added; wells containing cells without peptides served as controls. After incubating plates for 1 d, 20 µL of MTT solution (5 mg/mL) was added to each well, and the plates were incubated for an additional 4 h at 37°C. Precipitated MTT formazan was dissolved by adding 100 µL of dimethyl sulfoxide. Absorbance at 570 nm was measured using an enzyme-linked immunosorbent assay (ELISA) reader (Molecular Devices; Sunnyvale, CA). Cell survival, expressed as a percentage, was calculated as the ratio of A570 for cells treated with peptide to that of cells without peptide treatment.
In general terms: Tetrazolium dyes change colour on reduction, which living cells bring about.

Another series has as its system MDRST CCARM 8007. It is filed as cell-based, multidrug-resistant S. typhimurium. The settings on record: broth microdilution, 37°C, 16 h, three independent experiments in triplicate, SD 14.0%. On the technique in general: In broth dilution the organism is exposed to a series of concentrations in liquid medium.
A further series concerns MRSA CCARM 3090. It is filed as cell-based, Methicillin-resistant S. aureus. The settings on record: CCARM 3090, 16 h.
The next series relates to MDRAB CCARM 12005. It is filed as cell-based, multidrug-resistant Acinetobacter baumanii. The settings on record: broth microdilution, 37°C, 16 h, three independent experiments in triplicate, SD 14.0%.
The test system of a further series is E. coli KCTC1682. The class given is cell-based, Escherichia coli. The settings on record: KCTC1682, 16 h.
For another series, the system named is E.coli KCTC2571. The class given is cell-based, Escherichia coli. The settings on record: KCTC2571, 16 h.
The subject of a further series is MDRPA CCARM 2003. It is filed as cell-based, multidrug-resistant P. aeruginosa. The settings on record: broth microdilution, 37°C, 16 h, three independent experiments in triplicate, SD 14.0%.
The test system of another series is MRSA CCARM 3114. It is filed as cell-based, Methicillin-resistant S. aureus. The settings on record: CCARM 3114, 16 h.
For another series, the system named is B. subtilis KCTC3068. The class given is cell-based, Bacillus subtilis. The settings on record: KCTC3068, 16 h.
The test system of a further series is MDREC CCARM 1229. It is filed as cell-based, multidrug-resistant E. coli. The settings on record: broth microdilution, 37°C, 16 h, three independent experiments in triplicate, SD 14.0%.
The test system of a further series is MDRST CCARM 8009. It is filed as cell-based, multidrug-resistant S. typhimurium. The settings on record: broth microdilution, 37°C, 16 h, three independent experiments in triplicate, SD 14.0%.
The subject of the next series is S. aureus KCTC3881. It is filed as cell-based, Staphylococcus aureus. The settings on record: KCTC3881, 16 h.
For the next series, the system named is MDRPA CCARM 2095. The class given is cell-based, multidrug-resistant P. aeruginosa. The settings on record: broth microdilution, 37°C, 16 h, three independent experiments in triplicate, SD 14.0%.
The next series deals with MDRST CCARM 8003. The class given is cell-based, multidrug-resistant S. typhimurium. The settings on record: broth microdilution, 37°C, 16 h, three independent experiments in triplicate, SD 14.0%.
The test system of the next series is P. aeruginosa KCTC2513. It is filed as cell-based, Pseudomonas aeruginosa. The settings on record: KCTC2513, 16 h.
In a further series the test system is MDRAB CCARM 12035. It is filed as cell-based, multidrug-resistant Acinetobacter baumanii. The settings on record: broth microdilution, 37°C, 16 h, three independent experiments in triplicate, SD 14.0%.
The next series concerns MRSA CCARM 3108. The class given is cell-based, Methicillin-resistant S. aureus. The settings on record: CCARM 3108, 16 h.
Another series has as its system MDREC CCARM 1238. It is filed as cell-based, multidrug-resistant E. coli. The settings on record: broth microdilution, 37°C, 16 h, three independent experiments in triplicate, SD 14.0%.
Another series has as its system E. coli KCTC2593. The class given is cell-based, Escherichia coli. The settings on record: KCTC2593, 16 h.
The next series deals with MDRPA CCARM 2163. It is filed as cell-based, multidrug-resistant P. aeruginosa. The settings on record: broth microdilution, 37°C, 16 h, three independent experiments in triplicate, SD 14.0%.
The next series deals with B. subtilis KCTC1022. It is filed as cell-based, Bacillus subtilis. The settings on record: KCTC1022, 16 h.
The subject of the next series is S. epidermidis KCTC1917. It is filed as cell-based, Staphylococcus epidermidis. The settings on record: KCTC1917, 16 h.
The next series concerns MRSA CCARM 3126. It is filed as cell-based, Methicillin-resistant S. aureus. The settings on record: CCARM 3126, 16 h.
For the next series, the system named is P. aeruginosa KCTC2004. It is filed as cell-based, Pseudomonas aeruginosa. The settings on record: KCTC2004, 16 h.
For a further series, the system named is MDRAB CCARM 12036. It is filed as cell-based, multidrug-resistant Acinetobacter baumanii. The settings on record: broth microdilution, 37°C, 16 h, three independent experiments in triplicate, SD 14.0%.
The test system of another series is MDRPA CCARM 2002. The class given is cell-based, multidrug-resistant P. aeruginosa. The settings on record: broth microdilution, 37°C, 16 h, three independent experiments in triplicate, SD 14.0%.
The next series deals with S. aureus KCTC1621. The class given is cell-based, Staphylococcus aureus. The settings on record: KCTC1621, 16 h.
The test system of another series is S. typhimurium KCTC1926. The class given is cell-based, Salmonella typhimurium. The settings on record: KCTC1926, 16 h.
The next series relates to B. subtilis KCTC1021. It is filed as cell-based, Bacillus subtilis. The settings on record: KCTC1021, 16 h.
For another series, the system named is P. aeruginosa KCTC1637. It is filed as cell-based, Pseudomonas aeruginosa. The settings on record: KCTC1637, 16 h.
The test system of another series is MRSA CCARM3089. The class given is cell-based, Methicillin-resistant S. aureus. The settings on record: CCARM3089, 16 h.
In a further series the test system is S. aureus KCTC1916. It is filed as cell-based, Staphylococcus aureus. The settings on record: KCTC1916, 16 h.
In a further series the test system is MDRAB CCARM 12037. The class given is cell-based, multidrug-resistant Acinetobacter baumanii. The settings on record: broth microdilution, 37°C, 16 h, three independent experiments in triplicate, SD 14.0%.
The test system of series [2] is Standard bacterial strains. The class given is cell-based. The settings on record: average over the 14 standard bacterial strains of Table 2.
Series [3] deals with Drug-resistant bacterial strains. The settings on record: average over the 18 drug-resistant bacterial strains of Table 3. The gist of the method:
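Broth microdilution: mid-log bacteria grown in LB, 2×10^6 CFU/mL, mixed 1:1 with two-fold peptide dilutions in 1% peptone, 16 h at 37°C. Strains include KCTC reference isolates and CCARM MRSA and multidrug-resistant E. coli, S. typhimurium, A. baumanii, P. aeruginosa; MIC averaged from triplicates over three independent assays.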

Where no end group is shown, it is not given here.

Procedure for E. coli KCTC1682: (§1) The antimicrobial activities of the peptides against selected organisms, including three Gram-positive, three Gram-negative, and five antibiotic-resistant bacteria, were determined using a broth microdilution assay. Briefly, single colonies of bacteria and fungi were inoculated into Luria-Bertani (LB) medium and cultured overnight at 37°C. An aliquot of the culture was transferred to 10 mL of fresh LB and incubated for an additional 3–5 h at 37°C until it reached the mid-logarithmic phase. Two-fold serial dilutions of the peptides in 1% peptone were prepared. The serial dilutions (100 µL) were added to 100 µL of cells (2×10^6 colony-forming units (CFU)/mL) in 96-well microtiter plates and incubated at 37°C for 16 h. […] MIC values were calculated as the average of triplicate measurements from three independent assays.
Source text for E. coli KCTC2593: (§2) Escherichia coli KCTC 1682, E. coli KCTC 2593, E. coli KCTC 2571, Salmonella typhimurium KCTC 1926, Pseudomonas aeruginosa KCTC 1637, P. aeruginosa KCTC 2004, P. aeruginosa KCTC 2513, Bacillus subtilis KCTC 3068, B. subtilis KCTC 1021, B. subtilis KCTC 1022, Staphylococcus epidermidis KCTC 1917, Staphylococcus aureus KCTC 1621, S. aureus KCTC 1916, and S. aureus KCTC 3881 were purchased from the Korean Collection for Type Cultures, Korea Research Institute of Bioscience & Biotechnology (Taejon, Korea). Methicillin-resistant S. aureus (MRSA) (CCARM 3089, CCARM 3090, CCARM 3108, CCARM 3114, and CCARM 3126), multidrug-resistant E. coli (MDREC) (CCARM 1229 and CCARM 1238), multidrug-resistant S. typhimurium (MDRST) (CCARM 8003, CCARM 8007, and CCARM 8009), multidrug-resistant Acinetobacter baumanii (MDRAB) (CCARM 12005, CCARM 12035, CCARM 12036, CCARM 12037), and multidrug-resistant P. aeruginosa (MDRPA) (CCARM 2002, CCARM 2003, CCARM 2095, and CCARM 2163) were obtained from the Culture Collection of Antibiotic-Resistant Microbes (CCARM) at Seoul Women’s University in Korea. The antimicrobial activities of the peptides against selected organisms, including three Gram-positive, three Gram-negative, and five antibiotic-resistant bacteria, were determined using a broth microdilution assay. Briefly, single colonies of bacteria and fungi were inoculated into Luria-Bertani (LB) medium and cultured overnight at 37°C. An aliquot of the culture was transferred to 10 mL of fresh LB and incubated for an additional 3–5 h at 37°C until it reached the mid-logarithmic phase. Two-fold serial dilutions of the peptides in 1% peptone were prepared. The serial dilutions (100 µL) were added to 100 µL of cells (2×10^6 colony-forming units (CFU)/mL) in 96-well microtiter plates and incubated at 37°C for 16 h. […] MIC values were calculated as the average of triplicate measurements from three independent assays.
Procedure for E.coli KCTC2571: as §1
Procedure for MDRAB CCARM 12005: as §1
Procedure for MDRAB CCARM 12036: as §1
Procedure for MDREC CCARM 1229: as §1
Procedure for MDREC CCARM 1238: as §1
Procedure for MDRPA CCARM 2002: as §1
Procedure for MDRPA CCARM 2003: as §1
Procedure for MDRPA CCARM 2095: as §1
Procedure for MDRPA CCARM 2163: as §1
Source text for MDRST CCARM 8003: as §2
Source text for MRSA CCARM 3114: as §2
Procedure for P. aeruginosa KCTC1637: as §1
Procedure for P. aeruginosa KCTC2513: as §1
Procedure for S. aureus KCTC1916: as §1
Source text for S. aureus KCTC3881: as §2
Procedure for S. typhimurium KCTC1926: as §1

Take “FFHHIFRGIVHVGKTIHRLVTG [Pis-1, reference compound]”: the “MHC (minimal peptide concentration that produced hemolysis)” value in [1] (pH 7.4) came to 1.6 µM. In addition, in series [1] (peptide at its MIC, hRBCs), the Hemolysis entry is “produced hemolysis even at its MIC”. The “Survival rate of NIH3T3 cells” value with NIH3T3 cells (6.25 µM peptide) amounted to 64%; with NIH3T3 cells (12.5 µM peptide) it was 49%; in the series on NIH3T3 cells (25 µM peptide), 37%; with NIH3T3 cells (50 µM peptide), 11%.

The MIC is the least concentration at which growth counts as inhibited. The low end stands for inhibition by little substance, the high end for a need for much substance. Consider KFHHIFRGIVHVGKTIHRLVTG [Pis-F1K], for which the MIC with MDRST CCARM 8007 came to 4.0 µM; with MRSA CCARM 3090, 8.0 µM; against MDRAB CCARM 12005, 2.0 µM; in the series on E. coli KCTC1682, 4.0 µM; with E.coli KCTC2571, 2.0 µM; with MDRPA CCARM 2003, 2.0 µM. The MIC turned out to be 8.0 µM against MRSA CCARM 3114; 2.0 µM with B. subtilis KCTC3068; 8.0 µM in the series with MDREC CCARM 1229; 4.0 µM against MDRST CCARM 8009; 2.0 µM with S. aureus KCTC3881; 2.0 µM in the series with MDRPA CCARM 2095. The MIC was found to be 4.0 µM against MDRST CCARM 8003; 4.0 µM in the series with P. aeruginosa KCTC2513; 2.0 µM in the series with MDRAB CCARM 12035; 8.0 µM in the series on MRSA CCARM 3108; 8.0 µM with MDREC CCARM 1238; 2.0 µM in the series on E. coli KCTC2593. Besides, the minimal inhibitory concentration (MIC) was found to be 2.0 µM against MDRPA CCARM 2163; 1.0 µM against B. subtilis KCTC1022; 2.0 µM against S. epidermidis KCTC1917; 8.0 µM against MRSA CCARM 3126; 4.0 µM with P. aeruginosa KCTC2004; 2.0 µM against MDRAB CCARM 12036. In addition, the MIC in the series on MDRPA CCARM 2002 came to 2.0 µM; against S. aureus KCTC1621, 2.0 µM; in the series with S. typhimurium KCTC1926, 4.0 µM; with B. subtilis KCTC1021, 2.0 µM; in the series with P. aeruginosa KCTC1637, 4.0 µM; against MRSA CCARM3089 it was 8.0 µM. Besides, the MIC in the series with S. aureus KCTC1916 and in the series on MDRAB CCARM 12037 was 2.0 µM in each case. In addition, the “Average MIC” value in series [2] is listed as 2.6 µM; in [3] it was 4.7 µM.

These data come from article PMC4256409, “Role of Phenylalanine and Valine^10 Residues in the Antimicrobial Activity and Cytotoxicity of Piscidin-1” (PLoS ONE, 2014).
